Measurements taken from patent publication US10059715B2, “Acid addition salt of ibrutinib” (ratiopharm GmbH, priority 2014, dated 2018).
Values after ≈ are worked out from the molar mass of the structure shown. Counter-ions that a name gives are not always drawn. Blank lines part the entries; values can stand above or below the molecule they belong to.

Experiments:
[1] = Comparison of solubilities at pH values relevant for the gastrointestinal tract
physchem = conditions: 37 °C, thermodynamic from solid
[2] = at about pH 8; cited from earlier work
[3] = 20 mMol NaAc solution, pH 4.5, aqueous buffer

solubility ([1]; pH 1.2 (0.1M HCl), 15 min, listed as ibrutinib base (form A)): 2070 µg/mL (≈ 4700 µM)
solubility ([1]; pH 1.2 (0.1M HCl), 1 h): 2640 µg/mL (≈ 5990 µM)
solubility ([1]; pH 1.2 (0.1M HCl), 24 h): 2640 µg/mL (≈ 5990 µM)
solubility ([1]; pH 4.5 (20 mMol NaAc), 1 h, 37° C.): 10 µg/mL (≈ 22.7 µM)
solubility ([1]; pH 4.5 (20 mMol NaAc), 24 h, 37° C.): 10 µg/mL (≈ 22.7 µM)
solubility (in words) ([1]; pH 4.5, time not stated): substantially insoluble
solubility ([1]; pH 6.8 (50 mMol KH2PO4), 1 h, 37° C.): 10 µg/mL (≈ 22.7 µM)
solubility ([1]; pH 6.8 (50 mMol KH2PO4), 24 h, 37° C.): 10 µg/mL (≈ 22.7 µM)
solubility (in words) ([1]; pH 6.8, time not stated): substantially insoluble
solubility at 15 min (physchem; [3]): 10 µg/mL (≈ 22.7 µM)
solubility at 15 min (physchem; 50 mMol KH2PO4 solution, pH 6.8, aqueous buffer): 10 µg/mL (≈ 22.7 µM)
SMILES: C=CC(=O)N1CCC[C@@H](n2nc(-c3ccc(Oc4ccccc4)cc3)c3c(N)ncnc32)C1 [base, 1-[(3R)-3[4-Amino-3-(4-phenoxyphenyl)-1H-pyrazolo[3,4-d]pyrimidin-1-yl]piperidin-1-yl]prop-2-en-1one]
observed aqueous solubility [2]: about 0.013 mg/ml

solubility ([1]; pH 1.2 (0.1M HCl), 15 min, listed as crystalline ibrutinib hydrochloride, hydrochloride): 7370 µg/mL
solubility ([1]; pH 1.2 (0.1M HCl), 1 h, hydrochloride): 7720 µg/mL
solubility ([1]; pH 1.2 (0.1M HCl), 24 h, hydrochloride): 7380 µg/mL
solubility ([1]; pH 4.5 (20 mMol NaAc), 15 min): 10 µg/mL
solubility ([1]; pH 4.5 (20 mMol NaAc), 24 h, 37° C., hydrochloride): 460 µg/mL
solubility ([1]; pH 6.8 (50 mMol KH2PO4), 15 min): 10 µg/mL
solubility ([1]; pH 6.8 (50 mMol KH2PO4), 1 h, 37° C., hydrochloride): 50 µg/mL
solubility ([1]; pH 6.8 (50 mMol KH2PO4), 24 h, 37° C., hydrochloride): 410 µg/mL
solubility at 1 h (physchem; [3]): 20 µg/mL
SMILES: C=CC(=O)N1CCC[C@@H](n2nc(-c3ccc(Oc4ccccc4)cc3)c3c(N)ncnc32)C1 [HCl, ibrutinib hydrochloride]
